{
  "source": "patent US20250154468A1",
  "about": "“METHOD FOR INDUCING DEDIFFERENTIATION OF ADIPOCYTES” (City University of Hong Kong, priority 2023, published 2025)",
  "format_in_all_cases": "cell-based, mouse",
  "key": {"SVF adipocytes": {"tested_on": "SVF adipocytes", "assay": "Loss of lipid droplets and morphological changes of SVF-derived adipocytes", "design": "loss of lipid droplets: dose or concentration left out as unconfirmed", "method": "C57BL/6J mice were used for the present invention and maintained in a 12:12 h light-dark cycle. All mouse experiments were performed in accordance with the protocol approved by the Institutional Animal Research Ethics Sub-Committee of City University of Hong Kong and Department of Health, The Government of The Hong Kong Special Administrative Region. 6 to 8-week-old female were anesthetized with 4% of isoflurane by inhalation, and then inguinal, retroperitoneal WAT were removed. The tissues were shredded after washing in sterile PBS. Afterwards, the tissue pieces were incubated in type II collagenase (Sigma, product no. C6885) for 1 h at 37° C. before passed through a sterile 100 μm filter. SVF was obtained after 5 min centrifugation at 1000 rpm. Culture medium (DMEM supplemented with 10% FBS and 1% penicillin-streptomycin (all obtained from Thermo Fisher) was added to resuspend the cells, followed by culturing in 100 mm culture dishes. The following day, the culture medium was changed to remove the dead and non-adherent cells.\n1.25×10^5 3T3-L1 were seeded in 6-well dishes and cultured at 37° C. and 5% CO2. […]"}, "3T3-L1 adipocytes [1]": {"tested_on": "3T3-L1 adipocytes", "assay": "Chondrogenic re-differentiation of treated 3T3-L1 adipocytes", "conditions": "BML-284-treated adipocytes"}, "adipocytes": {"tested_on": "adipocytes", "assay": "Oil Red O staining of adipocytes", "conditions": "BML-284 treatment", "method": "Adipocytes were stained with Oil red O staining kit (Solarbio, product no. G1262) solution to detect the lipid droplets according to manufacturer's instructions. Specifically, cells were fixed with 10% formalin for 20 min at room temperature, followed by washing with 60% isopropanol for 5 min. Subsequently, staining was conducted with ORO solution for 20 min at room temperature to enable binding of the dye to the lipid droplets. Finally, the cells were washed with distilled water to eliminate any residual dye."}, "CD13 and Endoglin": {"tested_on": "CD13 and Endoglin", "assay": "Immunostaining of surface markers of dedifferentiated adipocytes", "conditions": "BML-284 treated cells", "method": "Twelve hours before the experiment, cells were seeded onto cover slips in 12-well dishes and cultured overnight at 37° C. and […]. Cells were fixed with […] for 10 min at 4° C. Next, the cells were either directly incubated with 1% BSA/PBS for 1 h or first permeabilized with 0.1% Triton X-100/PBS for 10 min at 4° C. before blocking with 1% BSA/PBS. Subsequently, CD13 primary antibody (Santa Cruz, product no. sc-13536 1:100) or Endoglin primary antibody (Santa Cruz, product no. sc-18838 1:100) was incubated with cells overnight at 4° C. Following 3 times washing in 0.5% tween/PBS, cells were incubated with secondary antibody (CST, product no. 8890S) in 1% BSA/PBS (1:400) in darkness for 1.5 hours at room temperature. After further washing, cells were mounted with DAPI (Thermo Fisher, product no. 62247) and examined with a Nikon A1HD25 confocal microscope."}, "Smad 9, Esrrb, and Sox2": {"tested_on": "Smad 9, Esrrb, and Sox2", "assay": "RT-qPCR of multipotency / stem cell marker genes in adipocytes", "conditions": "BML-284 treated cells", "method": "(§1) Total RNA was isolated using the RNA Extraction Kit (Takara, product no. 9767) in accordance with the manufacturer's recommended protocol. The first-strand cDNA was synthesized using the PrimeScript RT Reagent Kit (Takara, product no. RR047A) for RT-PCR. In brief, a 10 μl system containing 2 μl of 5× PrimeScript RT Master Mix (Perfect Real Time) and RNase-Free Distilled Water and RNA solution, with a total RNA amount of 500 ng, was transferred to the ABI ProFlex PCR System (2×96-well) to perform reverse transcription. RT-PCR was then conducted using the Ex-Taq PCR kit (Takara, product no. RR820A) following the manufacturer's instructions. All RT-qPCR primer sequences were included in Table 2."}, "3T3-L1 adipocytes [2]": {"tested_on": "3T3-L1 adipocytes", "assay": "AnnexinV-FITC/PI staining, apoptosis of adipocytes", "conditions": "comparison of BML-284 and hypertonic treatment", "method": "The hypertonic dedifferentiation of adipocytes typically requires up to 7 days of culture in 2% PEG-300. Considering that TNF-α is recognized as a proinflammatory cytokine capable of inducing adipocyte apoptosis, an evaluation of the apoptotic status of adipocytes was carried out using AnnexinV-FITC/PI staining. […] It was concluded that the extended hypertonic treatment could lead to apoptosis alongside the dedifferentiation of adipocytes."}, "3T3-L1 adipocytes [3]": {"tested_on": "3T3-L1 adipocytes", "assay": "Loss of lipid droplets and morphological changes of 3T3-L1 adipocytes", "design": "loss of lipid droplets: dose or concentration left out as unconfirmed", "method": "3T3-L1 (ATCC CL-173) cells were cultured in DMEM medium (Thermo Fisher, product no. 11965126) containing 10% FBS, 2 mM L-glutamine and […] of penicillin-streptomycin (Thermo Fisher).\n1.25×10^5 3T3-L1 were seeded in 6-well dishes and cultured at 37° C. and 5% CO2. The 10 μg/ml insulin (MedChemExpress, product no. HY-P0035), 1 μM dexamethasone (MedChemExpress, product no. HY-14648), 0.5 mM 3-isobutyl-1-methylxanthine (IBMX) (MedChemExpress, product no. HY-12318) and 2 μM rosiglitazone (Sigma, product no. R2408-10MG) (Differentiation medium) were supplemented in culture medium to constitute the differentiation medium for 2 days. Differentiation to SVF was induced by differentiation medium. The SVF cells were incubated for 5 days with differentiation medium. The medium was then changed to DMEM containing 10% FBS, 1×P/S, and 10 μg/ml insulin for 48 h, followed by changing to the culture medium.\n[…] […] HY-Y0873), and maintained at 37° C. and 5% CO2. The medium was changed every 3 days, being careful to avoid shaking the dish to allow the hypertonic medium to diffuse slowly in the culture dish."}, "[4]": {"tested_on": "C/EBPβ, PPAR-γ, and adiponectin", "assay": "RT-qPCR of adipogenic markers in 3T3-L1 adipocytes", "conditions": "BML-284 treated cells", "method": "as §1"}, "3T3-L1 adipocytes [5]": {"tested_on": "3T3-L1 adipocytes", "assay": "Osteogenic re-differentiation of treated 3T3-L1 adipocytes", "conditions": "BML-284-treated adipocytes", "method": "The osteogenic and chondrogenic re-differentiation capacities of dedifferentiated adipocytes were also examined. To induce osteogenic differentiation, 1×10^6 cells were seeded in 6-well plates and incubated overnight at 37° C. and 5% CO2. The culture medium was then replaced with StemPro Osteogenesis Differentiation medium (Thermo Fisher, product no. A1007201) and cells were maintained in this medium for up to 14 days, with medium renewal every 3 days. This medium contains specific factors that promote differentiation towards the osteogenic lineage, allowing the cells to deposit mineralized extracellular matrix and express osteogenic markers.\nAlkaline phosphatase (ALP) staining was conducted on Day 9 of the feeder cell-mediated reprogramming process, following the manufacturer's instructions for the Alkaline Phosphatase Detection Kit (Sigma, product no. SCR004). The staining was performed to detect the activity of ALP, a marker of pluripotency, and to assess the success of the reprogramming process.\nTotal RNA was isolated using the RNA Extraction Kit (Takara, product no. 9767) in accordance with the manufacturer's recommended protocol. The first-strand cDNA was synthesized using the PrimeScript RT Reagent Kit (Takara, product no. RR047A) for RT-PCR. […]"}, "[6]": {"tested_on": "VDAC and NDUFA9 in the EVs of 3T3-L1 adipocytes", "assay": "Immunoblot of mitochondrial proteins in EVs of 3T3-L1 adipocytes", "method": "To obtain lysates, cells were washed twice with cold PBS and lysed with 1 mL of RIPA buffer (Beyotime, product no. P0013B) at 4° C. for 1 hour with gentle rotation. The lysate was subsequently centrifuged at 12,000 g for 20 min at 4° C., and the resulting supernatant was quantified the protein concentration. Protein extracts were then separated by SDS-PAGE and transferred onto a NC membrane (Bio-Rad, product no. 1620112). The membranes were incubated overnight at 4° C. with antibodies against VDAC (CST, product no. 4866s, 1:1000), NDUFA9 (Abcam, product no. ab14713, 1:1000), CD81(Santa Cruz, product no. sc-166029, 1:1000), Non-phospho (Active) β-Catenin (CST, product no. 8814, 1:2000), β-Catenin (CST, product no. 9562, 1:1000) and 3-actin (Santa Cruz, product no. sc-47778, 1:1000). Following incubation with the appropriate secondary antibody (Abcam, product no. ab205719; Thermo Fisher, product no. 31460, 1:4000), the protein bands were visualized using an enhanced chemiluminescence (ECL) kit (Bio-Rad, product no. 170-5061) and captured using a Bio-red ChemiDoc. […]\nThe 3T3-L1 adipocytes were treated by isotonic and hypertonic medium. […] The resuspended suspensions contain approximately 80 μg protein each as determined by DC protein assay (Bio-Rad, product no. 5000114). […]"}, "[7]": {"tested_on": "TNF-α, IL-6, RIP1, CEBPA, and MCP-1", "assay": "RT-qPCR of inflammatory genes in 3T3-L1 adipocytes", "method": "To validate this, MEVs were isolated from the hypertonic treatment of 3T3-L1 adipocytes and subsequently applied to naïve 3T3-L1 adipocytes cultured in isotonic conditions (FIG. 6A).\nas §1"}, "[8]": {"tested_on": "mitochondria in adipocytes", "assay": "MitoTracker Green (MTG) staining of mitochondria", "conditions": "pyruvic acid (1 mM) added to the hypertonic treatment", "method": "Hypertonicity is known to disrupt the ionic homeostasis of cells and reduce the electronic potential in mitochondria, consequentially inhibiting ATP production.\nTo stain cells with MitoTracker (CST, product no. FM 9074), the 1 mM stock solution should be diluted directly into normal growth media to achieve a staining concentration ranging from 400 nM. The live cells were incubated for 15 minutes at 37° C. Following incubation, live imaging is necessary to visualize the staining pattern within the cells.\nTo mitigate mitochondrial stress, adipocytes were treated with 1 mM pyruvic acid (Sigma-Aldrich, product no. 107360) in hypertonic cultures. An equivalent volume of DMSO was added to the control samples. Following the treatment, the cells were either subjected to MTG staining or the supernatants were collected for EV isolation and analysis."}},
  "data": [
    {"compound": "COc1cccc(-c2cc(NCc3ccc4c(c3)OCO4)nc(N)n2)c1", "note": "[BML-284, 2-amino-4-(3,4-(methylenedioxy)benzylamino)-6-(3-methoxyphenyl)pyrimidine]", "values": [
      {"measurement": "cells with elongated morphology", "setting": "SVF adipocytes; BML-284-treated SVF adipocytes", "value": "significant increases"},
      {"measurement": "loss of lipid droplets", "setting": "SVF adipocytes; SVF adipocytes, isotonic culture, 4 days", "value": 80, "unit": "%"},
      {"measurement": "expression of chondrogenic markers after inducing treatment", "setting": "3T3-L1 adipocytes [1]", "value": "increased expression"},
      {"measurement": "Oil red staining", "setting": "adipocytes", "value": "decreased"},
      {"measurement": "expression of proteins of multipotency (CD13 and endoglin)", "setting": "CD13 and Endoglin", "value": "significant increases"},
      {"measurement": "expression of marker genes of multipotency (Smad 9, Esrrb, Sox2)", "setting": "Smad 9, Esrrb, and Sox2", "value": "significant increases"},
      {"measurement": "apoptosis in 3T3-L1 adipocytes", "setting": "3T3-L1 adipocytes [2]", "value": "did not lead to significant apoptosis"},
      {"measurement": "loss of lipid droplets", "setting": "3T3-L1 adipocytes [3]; 3T3-L1 adipocytes, isotonic culture, 4 days", "value": 40, "unit": "%"},
      {"measurement": "cells with elongated morphology", "setting": "3T3-L1 adipocytes [3]; BML-284-treated 3T3-L1 adipocytes", "value": "significant increases"},
      {"measurement": "expression of adipogenic genes (C/EBPβ, PPAR-γ, adiponectin)", "setting": "[4]", "value": "significant reductions"},
      {"measurement": "expression of osteogenic markers after inducing treatment", "setting": "3T3-L1 adipocytes [5]", "value": "increased expression"}
    ]},
    {"compound": "O=C(/C=C/c1ccc(/C=C/C(=O)Nc2ccc(C3=NCCN3)cc2)cc1)Nc1ccc(C2=NCCN2)cc1", "note": "[GW4869]", "values": [
      {"measurement": "EVs level of NDUFA9 induced by hypertonic treatments", "setting": "[6]; 10 μM GW4869, vs DMSO", "value": "substantially inhibited"}
    ]},
    {"compound": "CC(=O)C(=O)O", "note": "[pyruvic acid]", "values": [
      {"measurement": "induction of TNF-α expression by hypertonic EVs", "setting": "[7]; EVs from hypertonic culture with pyruvic acid", "value": "prevented"},
      {"measurement": "induction of TNF-α and IL-6 expression in hypertonic culture", "setting": "[7]; pyruvic acid added to the hypertonic culture, 2 hours", "value": "abolished"},
      {"measurement": "levels of mitochondrial proteins VDAC and NDUFA9 in the EVs", "setting": "[6]; pyruvic acid 1 mM in hypertonic culture", "value": "reduced"},
      {"measurement": "MTG staining of mitochondria in adipocytes", "setting": "[8]", "value": "effectively restored"}
    ]}
  ]
}
